Laboratory results reported in US20210045385A1, “PYRIDAZINONE-SUBSTITUTED KETOXIMES AS HERBICIDES” (FMC Corporation, priority 2018, published 2021).

Tests used:
Type in all cases: in vivo
[1] = system: Italian ryegrass (Lolium multiflorum); assay: Test A preemergence, visual plant response rating; details: for Ryegrass, Italian plant response rating (0 to 100 scale): approx. 10 days; for Ryegrass, Italian plant response rating: 125 g ai/ha, preemergence, 0 to 100 scale, 0 no effect, 100 complete control
Summary of the method: (§1)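 Ratings use a 0–100 visual scale (100 = complete control) against untreated controls, scored about 10 days after greenhouse treatment. Test chemicals were formulated in surfactant-containing non-phytotoxic solvent and applied either as soil spray after planting (preemergence) or onto one- to two-leaf, 2–10 cm plants (postemergence).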

[2] = system: barnyardgrass (Echinochloa crus-galli); assay: Test A preemergence, visual plant response rating; details: for Barnyardgrass plant response rating (0 to 100 scale): approx. 10 days; for Barnyardgrass plant response rating: 125 g ai/ha, preemergence, 0 to 100 scale, 0 no effect, 100 complete control
Summary of the method: as §1

[3] = system: foxtail, giant (giant foxtail, Setaria faberii); assay: Test A preemergence, visual plant response rating; details: for Foxtail, Giant plant response rating (0 to 100 scale): approx. 10 days; for Foxtail, Giant plant response rating: 125 g ai/ha, preemergence, 0 to 100 scale, 0 no effect, 100 complete control
Summary of the method: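 Preemergence: seeds in loam/sand blend given directed soil spray of compound in non-phytotoxic solvent with surfactant. Postemergence: plants 2–10 cm, one- to two-leaf stage, sprayed with same formulation. Visual injury rated vs untreated controls after ~10 days in greenhouse, 0 (no effect) to 100 (complete control).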

kochia (Kochia scoparia) [4] = assay: Test A preemergence, visual plant response rating; details: for Kochia plant response rating (0 to 100 scale): approx. 10 days; for Kochia plant response rating: 125 g ai/ha, preemergence, 0 to 100 scale, 0 no effect, 100 complete control
Summary of the method: as §1

[5] = system: pigweed (Amaranthus retroflexus); assay: Test A preemergence, visual plant response rating; details: for Pigweed plant response rating (0 to 100 scale): approx. 10 days; for Pigweed plant response rating: 125 g ai/ha, preemergence, 0 to 100 scale, 0 no effect, 100 complete control
Summary of the method: as §1

[6] = system: ragweed (common ragweed, Ambrosia elatior); assay: Test A preemergence, visual plant response rating; details: for Ragweed plant response rating (0 to 100 scale): approx. 10 days; for Ragweed plant response rating: 125 g ai/ha, preemergence, 0 to 100 scale, 0 no effect, 100 complete control
Summary of the method: as §1

[7] = system: Italian ryegrass (Lolium multiflorum); assay: Test A postemergence, visual plant response rating; details: for Ryegrass, Italian plant response rating: 125 g ai/ha, 0 to 100 scale (0 no effect, 100 complete control)
Summary of the method: as §1

[8] = system: barnyardgrass (Echinochloa crus-galli); assay: Test A postemergence, visual plant response rating; details: for Barnyardgrass plant response rating (0 to 100 scale): 500 g ai/ha, postemergence, 0 is no effect, 100 is complete control; for Barnyardgrass plant response rating: Postemergence, 125 g ai/ha, 0 to 100 scale (0 no effect, 100 complete control)
Summary of the method: as §1

[9] = system: blackgrass (Alopecurus myosuroides); assay: Test A postemergence, visual plant response rating; details: for Blackgrass plant response rating (0 to 100 scale): 500 g ai/ha, postemergence, 0 is no effect, 100 is complete control; for Blackgrass plant response rating: Postemergence, 125 g ai/ha, 0 to 100 scale (0 no effect, 100 complete control)
Summary of the method: as §1

corn (Zea mays) = assay: Test A postemergence, visual plant response rating; details: for Corn plant response rating (0 to 100 scale): 500 g ai/ha, postemergence, 0 is no effect, 100 is complete control; for Corn plant response rating: Postemergence, 125 g ai/ha, 0 to 100 scale (0 no effect, 100 complete control)
Summary of the method: as §1

[10] = system: foxtail, giant (giant foxtail, Setaria faberii); assay: Test A postemergence, visual plant response rating; details: for Foxtail, Giant plant response rating (0 to 100 scale): 500 g ai/ha, postemergence, 0 is no effect, 100 is complete control; for Foxtail, Giant plant response rating: Postemergence, 125 g ai/ha, 0 to 100 scale (0 no effect, 100 complete control)
Summary of the method: as §1

[11] = system: galium (catchweed bedstraw, Galium aparine); assay: Test A postemergence, visual plant response rating; details: for Galium plant response rating (0 to 100 scale): 500 g ai/ha, postemergence, 0 is no effect, 100 is complete control; for Galium plant response rating: Postemergence, 125 g ai/ha, 0 to 100 scale (0 no effect, 100 complete control)
Summary of the method: as §1

kochia (Kochia scoparia) [12] = assay: Test A postemergence, visual plant response rating; details: for Kochia plant response rating (0 to 100 scale): 500 g ai/ha, postemergence, 0 is no effect, 100 is complete control; for Kochia plant response rating: Postemergence, 125 g ai/ha, 0 to 100 scale (0 no effect, 100 complete control)
Summary of the method: as §1

[13] = system: pigweed (Amaranthus retroflexus); assay: Test A postemergence, visual plant response rating; details: for Pigweed plant response rating (0 to 100 scale): 500 g ai/ha, postemergence, 0 is no effect, 100 is complete control; for Pigweed plant response rating: Postemergence, 125 g ai/ha, 0 to 100 scale (0 no effect, 100 complete control)
Summary of the method: as §1

[14] = system: ragweed (common ragweed, Ambrosia elatior); assay: Test A postemergence, visual plant response rating; details: for Ragweed plant response rating (0 to 100 scale): 500 g ai/ha, postemergence, 0 is no effect, 100 is complete control; for Ragweed plant response rating: Postemergence, 125 g ai/ha, 0 to 100 scale (0 no effect, 100 complete control)
Summary of the method: as §1

[15] = system: wheat (Triticum aestivum); assay: Test A postemergence, visual plant response rating; details: for Wheat plant response rating: 0 to 100 scale (0 no effect, 100 complete control)
Summary of the method: as §1

[16] = system: barnyardgrass (Echinochloa crus-galli); assay: Test B flooded paddy test, visual plant response rating; details: 250 g ai/ha, Flood, applied to paddy water, 2-leaf stage, evaluated after 13 to 15 days
Summary of the method: (§2)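 Flooded-pot treatment: water 3 cm over the soil, chemical delivered into that water, depth unchanged for the duration. Assessed by eye versus controls following 13–15 greenhouse days; plants were at 2 leaves when dosed.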

[17] = system: ducksalad (Heteranhera limosa); assay: as above; details: 250 g ai/ha, Flood, applied to paddy water, 2-leaf stage, evaluated after 13 to 15 days
Summary of the method: as §2

rice (Oryza sativa) = assay: as above; details: 250 g ai/ha, Flood, applied to paddy water, 2-leaf stage, evaluated after 13 to 15 days
Summary of the method: as §2

[18] = system: sedge, umbrella (small-flower umbrella sedge, Cyperus difformis); assay: as above; details: 250 g ai/ha, Flood, applied to paddy water, 2-leaf stage, evaluated after 13 to 15 days
Summary of the method: as §2

[19] = 500 g ai/ha, postemergence, 0 is no effect, 100 is complete control

Row | Structure (SMILES) | Ryegrass, Italian plant response rating (0 to 100 scale) ([1]; 500 g ai/ha Preemergence) | Barnyardgrass plant response rating (0 to 100 scale) ([2]; 500 g ai/ha Preemergence) | Foxtail, Giant plant response rating (0 to 100 scale) ([3]; 500 g ai/ha Preemergence) | Kochia plant response rating (0 to 100 scale) (kochia (Kochia scoparia) [4]; 500 g ai/ha Preemergence) | Pigweed plant response rating (0 to 100 scale) ([5]; 500 g ai/ha Preemergence) | Ragweed plant response rating (0 to 100 scale) ([6]; 500 g ai/ha Preemergence) | Ryegrass, Italian plant response rating (0 to 100 scale) [7, 19] | Barnyardgrass plant response rating (0 to 100 scale) [8] | Barnyardgrass plant response rating [8] | Blackgrass plant response rating (0 to 100 scale) [9] | Blackgrass plant response rating [9] | Corn plant response rating (0 to 100 scale) (corn (Zea mays)) | Corn plant response rating (corn (Zea mays)) | Foxtail, Giant plant response rating (0 to 100 scale) [10] | Foxtail, Giant plant response rating [10] | Galium plant response rating (0 to 100 scale) [11] | Galium plant response rating [11] | Kochia plant response rating (0 to 100 scale) (kochia (Kochia scoparia) [12]) | Kochia plant response rating (kochia (Kochia scoparia) [12]) | Pigweed plant response rating (0 to 100 scale) [13] | also measured
1 | C#CCn1nc(C)c(O)c(C(=NOC)c2cccc(Cl)c2)c1=O (mixture of isomers) [Compound 3] | 70 | 20 | 10 | 10 | 10 | 10 | 80 | 40 | 0 | 50 | 10 | 20 | 0 | 40 | 10 | 70 | 30 | 50 | 10 | 50 | Ryegrass, Italian plant response rating (0 to 100 scale) ([1]; 125 g ai/ha Preemergence): 30; Barnyardgrass plant response rating (0 to 100 scale) ([2]; 125 g ai/ha Preemergence): 0; Foxtail, Giant plant response rating (0 to 100 scale) ([3]; 125 g ai/ha Preemergence): 0; Kochia plant response rating (0 to 100 scale) (kochia (Kochia scoparia) [4]; 125 g ai/ha Preemergence): 10; Pigweed plant response rating (0 to 100 scale) ([5]; 125 g ai/ha Preemergence): 0; Ragweed plant response rating (0 to 100 scale) ([6]; 125 g ai/ha Preemergence): 10; Ryegrass, Italian plant response rating ([7]; Postemergence): 20; Pigweed plant response rating [13]: 20; Ragweed plant response rating (0 to 100 scale) [14]: 60; Ragweed plant response rating [14]: 20; Wheat plant response rating (0 to 100 scale) [15, 19]: 10; Wheat plant response rating ([15]; Postemergence, 125 g ai/ha): 0; Plant response rating, Barnyardgrass (0 to 100 scale, 0 is no effect, 100 is complete control) [16]: 0; Plant response rating, Ducksalad (0 to 100 scale, 0 is no effect, 100 is complete control) [17]: 0; Plant response rating, Rice (0 to 100 scale, 0 is no effect, 100 is complete control) (rice (Oryza sativa)): 0; Plant response rating, Sedge, Umbrella (0 to 100 scale, 0 is no effect, 100 is complete control) [18]: 0
2 | CON=C(c1ccc(C)o1)c1c(O)c(C)nn(C)c1=O [Compound 141] | 20 | 0 | 0 | 0 | 0 | 0 | 0 | 0 | 0 | 30 | 10 | 0 | 0 | 0 | 0 | 10 | 0 | 0 | 0 | 0 | Ryegrass, Italian plant response rating [1]: 0; Barnyardgrass plant response rating [2]: 0; Foxtail, Giant plant response rating [3]: 0; Kochia plant response rating (kochia (Kochia scoparia) [4]): 0; Pigweed plant response rating [5]: 0; Ragweed plant response rating [6]: 0; Ryegrass, Italian plant response rating (0 to 100 scale) ([7]; Postemergence, rate not given, approx. 10 days): 0; Pigweed plant response rating [13]: 0; Ragweed plant response rating (0 to 100 scale) [14]: 0; Ragweed plant response rating [14]: 0; Wheat plant response rating ([15]; Postemergence, 500 g ai/ha): 0; Wheat plant response rating (0 to 100 scale) ([15]; Postemergence, approx. 10 days): 0; Plant response rating, Barnyardgrass (0 to 100 scale, 0 is no effect, 100 is complete control) [16]: 0; Plant response rating, Ducksalad (0 to 100 scale, 0 is no effect, 100 is complete control) [17]: 0; Plant response rating, Rice (0 to 100 scale, 0 is no effect, 100 is complete control) (rice (Oryza sativa)): 0; Plant response rating, Sedge, Umbrella (0 to 100 scale, 0 is no effect, 100 is complete control) [18]: 0
3 | CON=C(c1c(O)c(C)nn(C)c1=O)c1cccc2ccsc12 (single isomer, unassigned) [Compound 47] | 70 | 50 | 90 | 90 | 80 | 100 | 70 | 20 | 30 | 30 | 20 | 20 | 0 | 70 | 30 | 100 | 70 | 30 | 10 | 90 | Ryegrass, Italian plant response rating [1]: 10; Barnyardgrass plant response rating [2]: 0; Foxtail, Giant plant response rating [3]: 20; Kochia plant response rating (kochia (Kochia scoparia) [4]): 0; Pigweed plant response rating [5]: 20; Ragweed plant response rating [6]: 100; Ryegrass, Italian plant response rating ([7]; Postemergence): 0; Pigweed plant response rating [13]: 60; Ragweed plant response rating (0 to 100 scale) [14]: 90; Ragweed plant response rating [14]: 80; Wheat plant response rating (0 to 100 scale) [15, 19]: 0; Wheat plant response rating ([15]; Postemergence, 125 g ai/ha): 0; Plant response rating, Barnyardgrass (0 to 100 scale, 0 is no effect, 100 is complete control) [16]: 0; Plant response rating, Ducksalad (0 to 100 scale, 0 is no effect, 100 is complete control) [17]: 0; Plant response rating, Rice (0 to 100 scale, 0 is no effect, 100 is complete control) (rice (Oryza sativa)): 0; Plant response rating, Sedge, Umbrella (0 to 100 scale, 0 is no effect, 100 is complete control) [18]: 0
